According to patent publication US10259779B2 (WAYNE STATE UNIVERSITY, priority 2016, dated 2019):

Key:
[1] = test system: HDAC proteins in HeLa cell lysates; experiment: Global HDAC inhibition with HeLa cell lysates (HDAC-Glo I/II substrate); assay type: biochemical; details: for Deacetylase activity (%): Hela Lysate; for IC50: HeLa cell lysates
Method: HDAC activity was measured using the commercially available HDAC-Glo™ I/II substrate (Promega).
Lysates were prepared according to the reported procedure.^28 HeLa-S3 cells (purchased from Biovest) were lysed in lysis buffer (1×10^9 cells in 10 mL lysis buffer; 50 mM Tris-HCl, pH 8.0, 10% glycerol, 150 mM NaCl, 0.5% Triton X-100, and 1× protease inhibitor cocktail (GenDEPOT)) with rotation at 4° C. for 30 min. Cell debris was removed by centrifugation at 12000 rpm at 4° C. for 30 min. Protein concentration of the supernatant was determined using Bio-Rad protein assay (BioRad, Bradford reagent). Lysates were stored at −80° C.
To measure global HDAC inhibition, HeLa cell lysates (1 μg total protein) were mixed with HDAC-Glo™ buffer in polystyrene 96-well half area white plate (Corning) to a final volume of 12 μL, followed by addition of inhibitors in DMSO (0.5 μL) and incubation for 15 min at room temperature without rocking. An uninhibited control reaction was also included that contained DMSO (0.5 μL). Finally, deacetylase activity was measured using the HDAC-Glo™ assay kit (Promega) as per the manufacturer's protocol. Specifically, the HDAC-Glo™ substrate (1 mL) and developer ([…]) were first premixed to form the HDAC-Glo™ reagents. Then, to monitor deacetylase activity, HDAC-Glo™ reagent (5 μL) and HDAC-Glo™ buffer (7.5 μL) were added to each well (25 μL total volume) and incubated for 35 min at room temperature without rocking. The deacetylase activity was measured as luminescent signal using a GeniosPlus Fluorimeter (Tecan) at optimal gain. The concentrations of inhibitors reported in the dose-dependent studies (Table 2) are final concentrations after addition of HDAC-Glo™ reagent HDAC-Glo™ buffer.

HDAC3 = HDAC3 (Homo sapiens, UniProt O15379); experiment: ELISA-based HDAC activity assay, HDAC3
Chain of HDAC3 (O15379 whole entry): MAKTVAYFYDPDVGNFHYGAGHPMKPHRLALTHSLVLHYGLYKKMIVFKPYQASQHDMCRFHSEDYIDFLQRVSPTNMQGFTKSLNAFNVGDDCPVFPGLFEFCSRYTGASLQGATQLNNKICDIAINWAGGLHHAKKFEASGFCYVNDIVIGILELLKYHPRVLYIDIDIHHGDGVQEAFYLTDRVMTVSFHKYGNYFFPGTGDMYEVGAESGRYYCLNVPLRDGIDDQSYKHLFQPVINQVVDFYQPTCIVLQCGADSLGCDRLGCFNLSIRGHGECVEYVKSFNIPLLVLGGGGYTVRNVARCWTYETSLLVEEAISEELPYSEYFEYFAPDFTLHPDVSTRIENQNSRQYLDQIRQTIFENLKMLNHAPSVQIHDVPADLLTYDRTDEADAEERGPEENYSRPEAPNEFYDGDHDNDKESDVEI
Chain of HDAC3 (Q9Y618 whole entry partner): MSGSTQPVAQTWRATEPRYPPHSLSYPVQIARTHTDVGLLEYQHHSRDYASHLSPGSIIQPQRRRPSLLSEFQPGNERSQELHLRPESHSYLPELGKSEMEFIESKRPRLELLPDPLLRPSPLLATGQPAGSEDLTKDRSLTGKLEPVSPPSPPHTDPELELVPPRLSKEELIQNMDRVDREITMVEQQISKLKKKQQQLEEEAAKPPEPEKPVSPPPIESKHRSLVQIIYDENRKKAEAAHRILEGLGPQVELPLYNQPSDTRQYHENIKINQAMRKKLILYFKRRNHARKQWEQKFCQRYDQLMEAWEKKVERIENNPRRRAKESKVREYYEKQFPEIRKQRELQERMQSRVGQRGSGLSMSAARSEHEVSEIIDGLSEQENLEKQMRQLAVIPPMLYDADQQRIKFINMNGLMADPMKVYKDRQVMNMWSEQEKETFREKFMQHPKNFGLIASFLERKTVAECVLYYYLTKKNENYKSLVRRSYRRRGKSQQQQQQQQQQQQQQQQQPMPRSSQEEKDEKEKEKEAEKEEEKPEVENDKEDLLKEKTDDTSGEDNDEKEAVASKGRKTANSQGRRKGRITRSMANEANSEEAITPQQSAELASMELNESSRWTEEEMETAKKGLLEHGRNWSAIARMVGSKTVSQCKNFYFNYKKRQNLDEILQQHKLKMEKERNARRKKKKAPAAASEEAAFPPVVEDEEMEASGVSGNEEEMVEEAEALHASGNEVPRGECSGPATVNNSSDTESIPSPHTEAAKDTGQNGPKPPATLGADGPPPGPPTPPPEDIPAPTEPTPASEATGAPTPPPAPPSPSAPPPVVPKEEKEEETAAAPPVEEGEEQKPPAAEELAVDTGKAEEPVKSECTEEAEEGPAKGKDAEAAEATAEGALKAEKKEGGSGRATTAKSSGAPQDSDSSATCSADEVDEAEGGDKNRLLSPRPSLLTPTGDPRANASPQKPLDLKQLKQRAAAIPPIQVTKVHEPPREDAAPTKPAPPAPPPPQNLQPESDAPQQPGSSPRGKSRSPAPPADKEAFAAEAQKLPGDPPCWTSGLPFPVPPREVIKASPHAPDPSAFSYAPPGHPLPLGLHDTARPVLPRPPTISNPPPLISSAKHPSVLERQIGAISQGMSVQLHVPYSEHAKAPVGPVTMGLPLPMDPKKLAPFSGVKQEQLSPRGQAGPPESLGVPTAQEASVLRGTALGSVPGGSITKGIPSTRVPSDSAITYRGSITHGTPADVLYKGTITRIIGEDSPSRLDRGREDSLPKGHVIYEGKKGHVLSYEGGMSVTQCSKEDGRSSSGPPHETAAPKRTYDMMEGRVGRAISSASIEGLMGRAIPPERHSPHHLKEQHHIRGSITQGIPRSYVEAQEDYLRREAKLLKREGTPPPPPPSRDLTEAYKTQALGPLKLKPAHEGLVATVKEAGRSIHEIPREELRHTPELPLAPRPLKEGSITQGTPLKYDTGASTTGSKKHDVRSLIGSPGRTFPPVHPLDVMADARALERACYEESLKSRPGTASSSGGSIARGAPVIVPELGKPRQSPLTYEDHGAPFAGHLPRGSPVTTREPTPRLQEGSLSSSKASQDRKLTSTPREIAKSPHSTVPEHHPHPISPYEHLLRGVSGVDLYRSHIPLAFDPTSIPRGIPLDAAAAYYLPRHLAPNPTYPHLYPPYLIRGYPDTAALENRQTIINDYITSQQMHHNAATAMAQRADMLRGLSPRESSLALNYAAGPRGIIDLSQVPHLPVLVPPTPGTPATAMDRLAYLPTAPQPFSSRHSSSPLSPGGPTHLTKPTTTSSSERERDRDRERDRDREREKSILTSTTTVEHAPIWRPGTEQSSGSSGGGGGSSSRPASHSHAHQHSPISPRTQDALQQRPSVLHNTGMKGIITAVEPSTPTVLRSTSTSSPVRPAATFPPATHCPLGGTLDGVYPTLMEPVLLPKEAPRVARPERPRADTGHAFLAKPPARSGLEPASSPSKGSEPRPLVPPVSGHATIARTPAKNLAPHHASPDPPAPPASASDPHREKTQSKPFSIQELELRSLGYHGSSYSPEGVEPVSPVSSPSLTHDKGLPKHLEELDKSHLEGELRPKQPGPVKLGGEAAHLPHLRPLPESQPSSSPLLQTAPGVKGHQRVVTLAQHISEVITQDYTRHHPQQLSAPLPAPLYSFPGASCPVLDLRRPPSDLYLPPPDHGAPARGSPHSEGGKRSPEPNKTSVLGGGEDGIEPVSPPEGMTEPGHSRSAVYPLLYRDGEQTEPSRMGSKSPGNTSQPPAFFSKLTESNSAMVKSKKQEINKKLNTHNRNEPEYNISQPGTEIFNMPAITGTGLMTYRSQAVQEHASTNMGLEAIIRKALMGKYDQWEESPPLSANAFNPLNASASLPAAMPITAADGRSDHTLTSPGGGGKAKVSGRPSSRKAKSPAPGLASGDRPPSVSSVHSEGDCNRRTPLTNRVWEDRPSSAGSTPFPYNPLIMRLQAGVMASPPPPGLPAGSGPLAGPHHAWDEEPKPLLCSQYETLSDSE

HDAC2 = HDAC2 (Homo sapiens, UniProt Q92769); experiment: ELISA-based HDAC activity assay, HDAC2
Chain of HDAC2 (Q92769 whole entry): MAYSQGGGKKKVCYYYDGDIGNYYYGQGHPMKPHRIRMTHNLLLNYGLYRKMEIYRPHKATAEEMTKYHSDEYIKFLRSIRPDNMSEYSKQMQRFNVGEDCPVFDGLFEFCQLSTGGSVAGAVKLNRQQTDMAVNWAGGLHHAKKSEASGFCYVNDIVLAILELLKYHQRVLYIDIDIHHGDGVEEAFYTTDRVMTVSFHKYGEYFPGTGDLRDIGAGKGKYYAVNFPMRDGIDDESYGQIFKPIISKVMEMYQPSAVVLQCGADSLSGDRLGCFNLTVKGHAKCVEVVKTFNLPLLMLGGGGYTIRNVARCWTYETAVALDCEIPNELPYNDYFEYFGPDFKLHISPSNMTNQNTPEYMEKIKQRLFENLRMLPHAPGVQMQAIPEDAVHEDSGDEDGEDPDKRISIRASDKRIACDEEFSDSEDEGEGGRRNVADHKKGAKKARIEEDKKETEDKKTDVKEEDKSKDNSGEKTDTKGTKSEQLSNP

in vitro = details: human, Jurkat cells (leukemia cell line)
U937 cells = experiment: In vitro cell growth inhibition, MTT assay, U937; assay type: cell-based; details: Homo sapiens, U-937, U937 cell line
[2] = test system: acetyl-α-tubulin (HDAC6 substrate) in U937 cells; experiment: In cellulo selectivity testing, western blot of acetyl-α-tubulin; assay type: cell-based; details: 18 hours, SAHA 5 μM, 1f 20-60 μM, compared to DMSO control
[3] = read-out: Deacetylase activity (%) HDAC3
[4] = read-out: Deacetylase activity (%) HDAC2

| IC50 [1] | IC50 (HDAC3) | IC50 (HDAC2) | activity at 10 µM (HDAC3; [3]) | activity at 20 µM (HDAC3; [3]) | activity at 40 µM (HDAC3; [3]) | activity at 80 µM (HDAC3; [3]) | activity at 160 µM (HDAC3; [3]) | activity at 10 µM (HDAC2; [4]) | activity at 20 µM (HDAC2; [4]) | activity at 40 µM (HDAC2; [4]) | activity at 80 µM (HDAC2; [4]) | activity at 160 µM (HDAC2; [4]) | SMILES | Deacetylase activity (%) ([1]; […] 10^−5 M) | Deacetylase activity (%) ([1]; 1.0 × 10^−4 M) | Deacetylase activity (%) ([1]; 1.25 × 10^−5 M) | Deacetylase activity (%) ([1]; 2.0 × 10^−4 M) | Deacetylase activity (%) ([1]; 5.0 × 10^−5 M) | viability at 44 h, 1 µM (in vitro) | viability at 44 h, 10 µM (in vitro) | further results |
| --- | --- | --- | --- | --- | --- | --- | --- | --- | --- | --- | --- | --- | --- | --- | --- | --- | --- | --- | --- | --- | --- |
| 14 ± 1 µM | 6 µM | 4.9 µM |  |  |  |  |  |  |  |  |  |  | CCC(CCCC(=O)Nc1ccccc1)CCC(=O)NO (racemic) [Compound 1b, 4-ethyl-N^1-hydroxy-N^8-phenyloctanediamide] | 53 ± 3% |  |  |  |  |  |  | Deacetylase activity (%) ([1]; 2.4 × 10^−5 M): 31 ± 2%; Deacetylase activity (%) ([1]; 3.0 × 10^−6 M): 92 ± 1%; Deacetylase activity (%) ([1]; 4.8 × 10^−5 M): 12 ± 1%; Deacetylase activity (%) ([1]; 6.0 × 10^−6 M): 82 ± 7%; activity at 1 µM (HDAC3; [3]): 83 ± 7%; activity at 2 µM (HDAC3; [3]): 71 ± 4%; activity at 4 µM (HDAC3; [3]): 64 ± 2%; activity at 8 µM (HDAC3; [3]): 52 ± 6%; activity at 16 µM (HDAC3; [3]): 17 ± 8%; activity at 1 µM (HDAC2; [4]): 86 ± 2%; activity at 2 µM (HDAC2; [4]): 69 ± 1%; activity at 4 µM (HDAC2; [4]): 59 ± 2%; activity at 8 µM (HDAC2; [4]): 34 ± 7%; activity at 16 µM (HDAC2; [4]): 23 ± 2% |
| 60 ± 1 µM | 30 µM | 38 µM | 88 ± 2% | 56 ± 4% | 42 ± 5% | 25 ± 1% | 5 ± 3% | 79 ± 6% | 73 ± 2% | 46 ± 6% | 31 ± 2% | 16 ± 1% | CCCCCCC(CCCC(=O)Nc1ccccc1)CCC(=O)NO (racemic) [Compound 1d, 4-hexyl-N^1-hydroxy-N^8-phenyloctanediamide] | 73 ± 2% | 35 ± 3% | 87 ± 1% | 21 ± 3% | 56 ± 2% | 69 ± 4% | 39 ± 6% | activity at 1.25 µM (HDAC3; [3]): 100 ± 6%; activity at 1.25 µM (HDAC2; [4]): 101 ± 2%; EC50 (U937 cells): 16 µM |
| 62 ± 1 µM | 42 µM | 32 µM | 87 ± 4% | 63 ± 5% | 55 ± 3% | 33 ± 2% | 19 ± 2% | 74 ± 4% | 60 ± 1% | 47 ± 1% | 27 ± 5% | 20 ± 1% | O=C(CCC(CCCC(=O)Nc1ccccc1)Cc1ccccc1)NO (racemic) [Compound 1f, 4-benzyl-N^1-hydroxy-N^8-phenyloctanediamide] | 74 ± 5% | 35 ± 5% | 88 ± 4% | 19 ± 2% | 58 ± 4% | 89 ± 20% | 97 ± 4% | activity at 5 µM (HDAC3; [3]): 90 ± 3%; levels of acetyl-α-tubulin (AcTub), western blot [2]: dose-dependent increase; activity at 5 µM (HDAC2; [4]): 92 ± 4%; EC50 (U937 cells): 28 µM |
